# Paper PMC3283556, “The Activities of Current Antimalarial Drugs on the Life Cycle Stages of Plasmodium: A Comparative Study with Human and Rodent Parasites” (PLoS Medicine, 2012)
# “Also recorded” adds a separate entry of the source. Read-outs that look alike come from different tables or passages of the source.
# What was measured:
# Plasmodium oocysts = assay: Oocyst development / sporogony, Plasmodium species not stated at the place; assay type: in vivo; details: Plasmodium; 10 μM; box linked to oocysts; read-out: Inhibition at 10 μM (oocysts, Figure 5)
# Procedure: (§1) Membrane feeds were performed as described previously. Briefly, PbGFPcon-infected mouse blood was mixed with compounds, immediately placed into membrane feeders (39°C) and offered for 30 min to 80–100 overnight-starved A. stephensi (SDA 500 strain). After 7–9 d at 19°C/80%RH, mosquito midguts were dissected out. Midguts were fixed with paraformaldehyde and oocyst number was determined microscopically by semi-automated analysis as previously described.
# Gametocyte cultures were produced according to the same protocol as the Pf exflagellation assay. Pooled gametocyte cultures were evenly divided between compounds in fresh medium and incubated at 37°C for 24 h. The parasite pellets were then resuspended in fresh RBCs and human serum treated with the compounds to a 50% haematocrit and immediately fed to mosquitoes as described above and then maintained at 27°C/60%RH for 10–12 d before dissection and counting. […]
# [1] = tested on: P. yoelii liver stage parasites (liver schizonts); assay: P. yoelii liver stage assay in HepG2 cells (EEF immunofluorescence); assay type: cell-based, Plasmodium yoelii; details: for IC50: Plasmodium yoelii
# Procedure: (§2) 7.5×10^3 HepG2 cells in 50 µl of medium (1.5×10^5 cells/ml) were seeded in 384 well plates (Aurora 384 IQ-EB Black/Clear Plates) 20–26 h prior to the actual infection. 2 h prior to infection, 50 nl of compound in DMSO (0.1% final DMSO concentration per well) were transferred with a PinTool (GNF Systems) into the assay plates (10 µM final concentration). P. yoelii sporozoites were freshly dissected from infected A. stephensi mosquito salivary glands and filtered twice with a 40-µm strainer. The HepG2 cells were then infected with 8×10^3 sporozoites per well. After infection and 1-h incubation at 37°C, the cultures were washed, new media and compound added, and further incubated with 5-fold increased concentration of penicillin/streptomycin for 48 h at 37°C before exoerythrocytic forms (EEFs) quantification of infected cells by immunofluorescence.
# After washing with 1×PBS and fixation of the cells with 4% paraformaldehyde solution (EMS), membranes were permeabilised with 0.5% Triton-X-100 (Thermo Fisher Scientific) and EEFs were stained using a mouse polyclonal serum raised against the Plasmodium heat shock protein 70 (HSP70), an Alexa goat antimouse IgG, Fca-specific DyLight 649 secondary antibody (Invitrogen), and the Hoechst 33342 nucleic acid dye (Invitrogen). Stained EEFs were then quantified using the Opera Confocal High Content Screening system (PerkinElmer). Images were collected using a 20× magnification at a binning of 2 using a 365 Xeon arc lamp illumination to detect the nuclei and 635-nm laser line to excite DyLight649.
# (§3) High-content imaging of infected HepG2-CD81 cells was performed as described in Meister et al.. Wells were analysed using a custom Acapella (PerkinElmer) script parameterized for this assay. In brief, images from fields inside the well were first discarded as out of focus when the intensity in the nuclear area was too low. Then hepatic cells were counted by detecting the nuclei labelled with Hoechst 33342 and parasites were segmented using the HSP70 immuno-labelling. Morphology-based (e.g., area, roundness) and intensity-based features were calculated for each object detected including the hepatocyte nuclei and the parasites. Parasitemia was set as the ratio between parasite number (Alexa fluor positive) and the hepatocyte nuclei count, determined at the same time.
# (§4) When an infected mosquito bites a host, ∼100 sporozoites may be injected into the dermis from where they rapidly invade liver cells,[33]. This infective step represents the second bottleneck during transmission and therefore another potentially vulnerable point for intervention. In the absence of a practical liver stage assay measuring the formation of P. falciparum/P. vivax liver schizonts, an equivalent assay was developed in P. yoelii and used to assess the activity of the collection of molecules against this specific stage. Specifically, P. yoelii sporozoites were dissected from the salivary glands of infected mosquitoes and were allowed to invade human hepatocarcinoma cells expressing the CD81 protein. The development of the liver schizonts was monitored by immunofluorescence staining using an HSP70 antibody specific to the parasite (Figure 4A).
# Figure 4 Validation and results of anti-infectives tested against P. yoelii liver stage parasites. (A) Opera-generated images from a time point experiment using a 20× objective lens. P. yoelii parasites (red) were visualized using a mouse polyclonal HSP70 antibody, and the HepG2 cells (green) were stained with Hoechst 33342 nucleic acid dye. […] (B) A dose response plot with atovaquone from data generated from the Opera imaging system. The median areas of compound-treated parasites were compared to untreated DMSO controls to determine the degree of inhibition.
# HepG2 cells = assay: Growth retardation of HepG2 cells; details: for IC50: Homo sapiens, HepG2, read-out: IC50 HepG2; for CI (cytotoxicity index): IC50 HepG2 compared to IC50 parasite
# Procedure: as §2, §3, §4
# [2] = tested on: P. falciparum mature gametocytes / male gamete exflagellation; assay: P. falciparum exflagellation assay; assay type: cell-based, Plasmodium falciparum; details: for inhibition at 10 µM: Plasmodium falciparum
# Procedure: After 24 h, exflagellation was triggered by a temperature decrease to ∼21°C and observed 20 min later under the microscope. Highly motile exflagellation centres were recorded for ∼50–150 adjacent fields of view and reported per 10,000 RBCs.
# (§5) (A) Assays examined exflagellation (P. falciparum), ookinete formation (P. berghei), or oocyst formation (P. falciparum). All antimalarials were screened at 10 µM. (B) The biological content of the in vitro P. berghei ookinete assay spans gamete formation, fertilization, zygote development, and ookinete formation. […] (D) The in vitro P. falciparum exflagellation assay exposes mature gametocytes to antimalarials for 24 h before triggering exflagellation. […] All experiments in triplicate. (E) The in vivo P. falciparum oocyst assay differs from the P. berghei oocyst assay in that mature gametocytes were exposed to the antimalarials in culture for 24 h before feeding to mosquitoes.
# [3] = tested on: P. berghei ookinete formation; assay: P. berghei ookinete development assay; assay type: cell-based, Plasmodium berghei; details: for effect on ookinete formation: 10 µM; for IC50 / inhibition at 10 µM: Plasmodium berghei; for IC50: read-out: IC50 ookinete formation; for inhibition at 10 µM: read-out: Inhibition at 10 μM (ookinete, Figure 5)
# Procedure: Compounds and P. berghei gametocyte-infected blood were dispensed in a 96-well plate containing ookinete medium. After 24 h at 19°C, Giemsa-stained ookinetes were counted under the microscope (×40) as previously described,[28].
# as §5, with “Figure 3 The transmission-blocking potential of selected antimalarials in three bioassays that cover different phases of Plasmodium vector stage development. (A)” for “(A)”, “formation. Ookinete formation was insensitive to most of the antimalarials tested.” for “formation.”, “mosquitoes. […] NPC1161-B, lumefantrine, halofantrine, and mefloquine +RS isomer were also active. (n = 4–61 observations; average ± standard error of the mean [SEM]).” for “mosquitoes.”
# [4] = tested on: P. berghei oocyst formation; assay: Standard membrane feed assay, P. berghei oocysts in A. stephensi; assay type: in vivo, Plasmodium berghei; details: 10 µM
# Procedure: as §1
# Supplementary file pmed.1001169.s001.tif: Figure S1 The transmission-blocking potential of selected compounds against P. berghei in standard membrane feeding assays. All antimalarials were screened at 10 µM in triplicate in independent experiments. The biological content of this assay spans gamete formation through to occyst development all within the gut of the mosquito. […] (TIF) Click here for additional data file.
# [5] = tested on: P. falciparum asexual blood stage parasites (strains NF54, D6, K1, W2, 7G8, TM90C2A, V1/S); assay: [3H]-hypoxanthine incorporation growth inhibition assay, asexual blood stage; assay type: cell-based, Plasmodium falciparum; details: for IC50: Plasmodium falciparum
# Procedure: In vitro antimalarial activity was measured using the [^3H]-hypoxanthine incorporation assay with various strains of P. falciparum obtained from MR4. Results were expressed as the concentration resulting in 50% inhibition (IC50).
# The half-maximal inhibitory concentrations (IC50) were determined for each molecule (Table S2).
# Figure 2 The potencies of selected antimalarials against asexual blood stages. Main classes of antimalarials were tested against the blood stage of seven Plasmodium falciparum strains in the [^3H]hypoxanthine incorporation assay as described in Vennerstrom et al.. The strains tested here (obtained from MR4) were two drug-sensitive strains NF54 and D6 and five drug-resistant strains: K1, resistant to chloroquine (CQ) and pyrimethamine (PYR), origin Thailand, carries mutations in genes pfmdr1, pfcrt, pfdhfr, pfdhps; W2, resistant to CQ, PYR, quinine, cycloguanil, and sulfadoxine, origin Vietnam; 7G8, resistant to CQ and PYR, origin Brazil; TM90C2A, resistant to CQ, PYR, and MFQ, origin Thailand; and V1/S, resistant to CQ, PYR and cycloguanil, origin Vietnam. Results are expressed as the concentration resulting in 50% growth inhibition (IC50).Values are means of ≥3 independent experiments. (A) Endoperoxides. (B) 4-AQs. (C) 8-AQs and amino alcohols. (D) Antifolates, antibiotics, and others.
# [6] = HepG2, box linked to liver schizont, read-out: IC50 (liver schizont, Figure 5)
# [7] = 10 µM, 24 h exposure of mature gametocytes
# [8] = HepG2, read-out: IC50 (liver schizont, Figure 5)
# [9] = HepG2, read-out: IC50 liver stage
# [10] = read-out: Inhibition at 10 μM (gametocytes/exflagellation, Figure 5)
compound,measurement,setting,value
"C[C@H]1[C@@H](O)O[C@@H]2O[C@@]3(C)CC[C@H]4[C@H](C)CC[C@@H]1[C@@]24OO3 [DHA, dihydroartemisinin]",inhibition at 10 µM,Plasmodium oocysts,> 90%
same,IC50,[1]; [6],< 1 µM
CC(C)(N)CNC(=O)C[C@H]1CC[C@]2(CC1)OO[C@]1(O2)C2CC3CC(C2)CC1C3 [OZ277],IC50,HepG2 cells,7.4 ± 5.13 µM
same,CI (cytotoxicity index),HepG2 cells,4.38
same,inhibition at 10 µM,Plasmodium oocysts,> 90%
same,IC50,"[1]; HepG2, development of P. yoelii liver schizonts following infection of HepG2 cells, read-out: IC50 Parasite",1.69 ± 1.22 µM
same,effect on exflagellation (words),[2]; [7],inhibited exflagellation totally
same,inhibition at 10 µM,"[2]; 10 μM, box linked to gametocytes/exflagellation, read-out: Inhibition at 10 μM (gametocytes/exflagellation, Figure 5)",> 60%
CCCCC[C@@H]1CN[C@H](C(=O)N[C@@H]([C@H]2O[C@H](SC)[C@H](O)[C@@H](O)[C@H]2O)[C@H](C)Cl)C1 [cis-mirincamycin],effect on ookinete formation,[3],enhancement of ookinete formation that was not statistically significant
C[C@@H]1C[C@@H]([C@H](O)CC2CC(=O)NC(=O)C2)C(=O)[C@@H](C)C1 [cycloheximide],transmission-blocking effect on P. berghei oocysts (words),[4],most notable transmission-blocking activity
same,effect on growth of HepG2-CD81 cells,HepG2 cells,retarded the growth of HepG2-CD81 cells
same,IC50,HepG2 cells,0.92 ± 0.29 µM
same,CI (cytotoxicity index),HepG2 cells,6.13
same,IC50,[1]; [8],< 1 µM
same,IC50,"[1]; HepG2, read-out: IC50 Parasite",0.15 ± 0.01 µM
same,IC50,[1]; [9],< 0.2 µM
same,effect on exflagellation (words),[2]; [7],inhibited exflagellation totally; also recorded: Inhibition of exflagellation
same,inhibition at 10 µM,[2]; [10],> 60%
same,effect on ookinete formation,[3],strongly inhibited ookinete formation
same,IC50,[3],0.025 µM
same,inhibition at 10 µM,[3],> 80%
O=CN(O)CCCP(=O)(O)O [fosmidomycin],effect on ookinete formation,[3],enhancement of ookinete formation that was not statistically significant
CCc1nc(N)nc(N)c1-c1ccc(Cl)cc1 [pyrimethamine],transmission-blocking effect on P. berghei oocysts (words),[4],most notable transmission-blocking activity
same,inhibition at 10 µM,Plasmodium oocysts,> 90%
same,IC50,[1]; [6],< 1 µM
same,IC50,"[1]; HepG2, dose response, median parasite area (Opera), read-out: IC50 liver stage",< 0.01 µM
same,inhibition at 10 µM,"[2]; read-out: inhibition of exflagellation, 10 µM, 24 h exposure of mature gametocytes",> 80%
same,effect on ookinete formation,[3],strongly inhibited ookinete formation
same,inhibition at 10 µM,"[3]; 10 μM, box linked to ookinete",> 80%
same,IC50,"[5]; Erythrocyte, box linked to blood stage schizont, read-out: IC50 (erythrocyte schizont, Figure 5)",< 0.02 µM
same,resistance / retention of potency against resistant strains,[5]; drug-resistant strains,Resistance to pyrimethamine was verified in all drug-resistant strains
COc1cc(C)c2c(Oc3cccc(C(F)(F)F)c3)c(OC)cc(NC(C)CCCN)c2n1 (centres unmarked) [tafenoquine],effect on ookinete formation,[3],enhancement of ookinete formation that was not statistically significant
same,IC50,[5]; strain 7G8,~0.05 µM
same,IC50,[5]; strain NF54,~0.5 µM
C=C(NC(=O)C(=C)NC(=O)c1csc(C2=N[C@@H]3c4csc(n4)[C@H]4NC(=O)c5csc(n5)[C@H]([C@](C)(O)[C@@H](C)O)NC(=O)[C@H]5CSC(=N5)/C(=C/C)NC(=O)[C@H]([C@@H](C)O)NC(=O)c5csc(n5)[C@]3(CC2)NC(=O)[C@H](C)NC(=O)C(=C)NC(=O)[C@H](C)NC(=O)[C@H]([C@@H](C)CC)N[C@@H]2C=Cc3c([C@H](C)O)cc(nc3[C@H]2O)C(=O)O[C@@H]4C)n1)C(N)=O [thiostrepton],effect on growth of HepG2-CD81 cells,HepG2 cells,retarded the growth of HepG2-CD81 cells
same,IC50,HepG2 cells,0.18 ± 0.02 µM
same,CI (cytotoxicity index),HepG2 cells,1.0
same,IC50,[1]; [8],< 1 µM
same,IC50,"[1]; HepG2, read-out: IC50 Parasite",0.18 ± 0.05 µM
same,IC50,[1]; [9],< 0.2 µM
same,potency range against liver stages,[1]; dose response,submicromolar potencies
same,effect on exflagellation (words),[2]; [7],Inhibition of exflagellation
same,inhibition at 10 µM,"[2]; 24 h, read-out: inhibition of exflagellation",> 80%
same,inhibition at 10 µM,[2]; [10],> 60%
same,effect on ookinete formation,[3],strongly inhibited ookinete formation
same,IC50,[3],8 µM
same,inhibition at 10 µM,[3],> 80%
